The NIST ThermoML archive (doi:10.1021/acs.jced.5b00654)

Details: Fluid (supercritical or subcritical phases); for mass density: Buoyancy - hydrostatic balance with magnetic suspension - one sinker; for viscosity: Vibrating wire viscometry

CCCC [butane]
Details	mass density [kg/m3]	viscosity [mPa·s]
373.15 K, 392.71 kPa	7.8028	0.009241
373.15 K, 439.63 kPa	8.8018	0.009247
373.15 K, 441.23 kPa	8.8343	0.009243
373.15 K, 750.55 kPa	15.881	0.009298
373.15 K, 1366.4 kPa	33.46	0.009514
373.15 K, 1367.1 kPa	33.484	0.009518
423.11 K, 2532.5 kPa	59.203	0.01157
423.12 K, 2534 kPa	59.251	0.01158
423.13 K, 2535.6 kPa	59.303	0.01157
423.16 K, 195.54 kPa	3.2893	0.0104
423.16 K, 195.59 kPa	3.2893	0.0104
423.17 K, 450.91 kPa	7.7808	0.01045
423.17 K, 452.37 kPa	7.8076	0.01045
423.17 K, 1490.2 kPa	29.071	0.01078
423.17 K, 2272.3 kPa	50.31	0.01129
423.19 K, 654.26 kPa	11.533	0.0105
423.19 K, 1490 kPa	29.063	0.01078
423.19 K, 3006 kPa	79.774	0.01234
423.2 K, 653.48 kPa	11.519	0.01049
423.2 K, 2781.1 kPa	69.059	0.01191
423.2 K, 2781.6 kPa	69.058	0.01191
423.2 K, 3005.8 kPa	79.773	0.01233
423.2 K, 3170.2 kPa	89.28	0.01273
423.24 K, 1016.1 kPa	18.65	0.0106
423.25 K, 1015.9 kPa	18.648	0.01059
423.26 K, 884.12 kPa	15.981	0.01056
423.26 K, 884.38 kPa	15.987	0.01055
423.28 K, 3171.4 kPa	89.266	0.01273
423.47 K, 3280.9 kPa	96.663	0.01307
423.48 K, 3280.8 kPa	96.642	0.01306
424.21 K, 3176.8 kPa	88.401	0.01272
424.21 K, 3177 kPa	88.415	0.01273
428.08 K, 194.36 kPa	3.2322	0.01054
428.09 K, 194.34 kPa	3.2308	0.01053
428.09 K, 5149.9 kPa	360.26	0.04425
428.09 K, 5150.2 kPa	360.25	–
